Reference: ChEMBL document CHEMBL5724914, “Linking interpersonal differences in gut microbiota composition and drug biotransformation activity” (2024)

Tests used:
[1] = human gut metagenome, 24 h, 2 µM
[2] = (§1) The drug is tested on Z-004 corresponding to metagenome with ENA study accession number: PRJEB37062 and ENA sample accession number: ERS12561804 for biotransformation under anaerobic condition. The drug concentrations were measured over 9 timepoints collected between 0 and 24 hours of incubation by liquid-chromatography-coupled mass spectrometry (LC–MS); conditions: 2 µM
[3] = human gut metagenome, 24 h, 2 µM; remark: listed apart in the source
[4] = (§2) The drug is tested on WLS-038 corresponding to human gut metagenome with ENA study accession number: PRJEB37062 and ENA sample accession number: ERS12561745 for biotransformation under anaerobic condition. The drug concentrations were measured over 9 timepoints collected between 0 and 24 hours of incubation by liquid-chromatography-coupled mass spectrometry (LC–MS); conditions: 2 µM
[5] = human gut metagenome, 24 h, 2 µM; remark: listed apart in the source
[6] = human gut metagenome, 24 h, 2 µM; remark: listed apart in the source
[7] = as §2, with “Z-020” for “WLS-038”, “rabbit” for “human”, “ERS12561819” for “ERS12561745”; conditions: 2 µM
[8] = as §2, with “Z-003” for “WLS-038”, “pig” for “human”, “ERS12561803” for “ERS12561745”; conditions: 2 µM
[9] = as §1, with “Z-008” for “Z-004”, “ERS12561808” for “ERS12561804”; conditions: 2 µM
[10] = as §2, with “Z-019” for “WLS-038”, “rat” for “human”, “ERS12561818” for “ERS12561745”; conditions: 2 µM
[11] = as §2, with “WLS-069” for “WLS-038”, “ERS12561748” for “ERS12561745”; conditions: 2 µM
[12] = human gut metagenome, 24 h, 2 µM; remark: listed apart in the source
[13] = as §1, with “Z-023” for “Z-004”, “ERS12561822” for “ERS12561804”; conditions: 2 µM
[14] = as §2, with “WLS-007” for “WLS-038”, “ERS12561742” for “ERS12561745”; conditions: 2 µM
[15] = human gut metagenome, 24 h, 2 µM; remark: listed apart in the source
[16] = as §2, with “Z-001” for “WLS-038”, “mouse” for “human”, “ERS12561801” for “ERS12561745”; conditions: 2 µM
[17] = as §2, with “WLS-077” for “WLS-038”, “ERS12561750” for “ERS12561745”; conditions: 2 µM
[18] = as §1, with “Z-027” for “Z-004”, “ERS12561826” for “ERS12561804”; conditions: 2 µM
[19] = human gut metagenome, 24 h, 2 µM; remark: listed apart in the source
[20] = as §2, with “WLS-082” for “WLS-038”, “ERS12561751” for “ERS12561745”; conditions: 2 µM
Also: call rule not given here.

SMILES | Bacterial Biotransformation [1] | Bacterial Biotransformation [2] | Bacterial Biotransformation [3] | Bacterial Biotransformation [4] | Bacterial Biotransformation [5] | Bacterial Biotransformation [6] | Bacterial Biotransformation [7] | Bacterial Biotransformation [8] | Bacterial Biotransformation [9] | Bacterial Biotransformation [10] | Bacterial Biotransformation [11] | Bacterial Biotransformation [12] | Bacterial Biotransformation [13] | Bacterial Biotransformation [14] | Bacterial Biotransformation [15] | Bacterial Biotransformation [16] | Bacterial Biotransformation [17] | Bacterial Biotransformation [18] | Bacterial Biotransformation [19] | Bacterial Biotransformation [20]
CC(=O)OCC(=O)[C@@]1(OC(C)=O)[C@@H](C)C[C@H]2[C@@H]3C[C@H](F)C4=CC(=O)C=C[C@]4(C)[C@@]3(F)[C@@H](O)C[C@@]21C [DIFLORASONE DIACETATE] | Compound metabolized | Compound NOT metabolized | Compound metabolized | Compound metabolized | Compound metabolized | Compound metabolized | Compound metabolized | Compound NOT metabolized | Compound metabolized | Compound NOT metabolized | Compound metabolized | Compound metabolized | Compound NOT metabolized | Compound metabolized | Compound metabolized | Compound metabolized | Compound metabolized | Compound NOT metabolized | Compound metabolized | Compound metabolized
O=C1N=C([O-])NC1(c1ccccc1)c1ccccc1.[Na+] [PHENYTOIN SODIUM] | Compound metabolized | Compound NOT metabolized | Compound metabolized | Compound NOT metabolized | Compound metabolized | Compound metabolized | Compound NOT metabolized | Compound NOT metabolized | Compound NOT metabolized | Compound NOT metabolized | Compound metabolized | Compound metabolized | Compound NOT metabolized | Compound metabolized | Compound metabolized | Compound NOT metabolized | Compound NOT metabolized | Compound NOT metabolized | Compound metabolized | Compound metabolized
